Patent US9388147B2 (Receptos, Inc., priority 2009, dated 2016)

What follows are compounds tested against S1P1/EDG1 (Homo sapiens, UniProt P21453) (assay: S1P1 CRE-bla CHOK1 reporter assay, inhibition of Forskolin induced cAMP). Conditions: agonist activity range, S1P1 CRE-bla CHOK1, 2 μM Forskolin; read-out: S1P1 ACTIVITY.
Chain of S1P1/EDG1 (P21453 whole entry): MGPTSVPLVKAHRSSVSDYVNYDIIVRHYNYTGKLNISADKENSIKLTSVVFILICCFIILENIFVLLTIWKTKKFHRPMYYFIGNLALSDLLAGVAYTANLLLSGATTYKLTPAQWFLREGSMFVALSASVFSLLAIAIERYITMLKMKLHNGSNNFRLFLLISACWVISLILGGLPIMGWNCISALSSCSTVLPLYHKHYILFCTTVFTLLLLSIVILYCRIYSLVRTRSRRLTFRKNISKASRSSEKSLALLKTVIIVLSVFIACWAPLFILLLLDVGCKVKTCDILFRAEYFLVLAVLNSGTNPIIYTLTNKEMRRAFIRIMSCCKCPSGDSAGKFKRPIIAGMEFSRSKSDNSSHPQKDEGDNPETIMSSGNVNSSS
Format: cell-based
Description: Generation of S1P1-Mediated Inhibition of cAMP Reporter Assay
A mammalian expression plasmid containing S1P1/EDG1 cloned into pcDNA3.1 was purchased from Missouri S&T cDNA Resource Centre. […] S1P1/pcDNA3.1 was transfected into the CRE-bla CHO K1 (Invitrogen) cell line, and stable single cell clones were selected using standard techniques.
S1P1 CRE-Bla CHOK1 Reporter Assay—Characterization of S1P1 Agonists
Cells were seeded into 384-well black wall/clear bottom plates at 10^4 cells/well/19.5 μl assay media (DMEM-phenol free, 0.5% charcoal/dextran stripped serum, 2 mM glutamine, 0.1 mM NEAA, 1 mM Na-Pyruvate, 25 mM Hepes) and incubated for 18 hrs at 37° C. in 5% CO2. Dose response curves (10-point) were generated in 10 mM Hepes, 0.1% Pluronic F127, in the presence of Forskolin. Cells were treated with 0.5 μl compound in the presence of 2 μM Forskolin for 4 hrs at 37° C. The FRET-based β-lactamase fluorescent substrate (LiveBLAzer™-FRET B/G Loading Kit CC4-AM; Invitrogen) was prepared according to manufacturer's directions, and incubated with cells for 2 hrs at room temperature. […] Data was analyzed by non-linear regression to determine the EC50 for inhibition of Forskolin induced cAMP.
`CC(C)Oc1ccc(-c2nc(-c3cccc4c3CC[C@H]4NC(=O)N3CC[C@H](N)C3)no2)cc1C#N` [Compound 222] was tested, and the EC50 was 0.5 to 5 nM. For `CC(C)Oc1ccc(-c2nc(-c3cccc4c3CC[C@@H]4N(C)C)no2)cc1C#N` [Compound 210], the EC50 was 0.5 to 5 nM. Work on `CC(C)Oc1ccc(C#N)cc1-c1nc(-c2cccc3c2CC[C@H]3N)no1` [Compound 99, (R)-3-(3-(1-amino-2,3-dihydro-1H-inden-4-yl)-1,2,4-oxadiazol-5-yl)-4-isopropoxy benzonitrile] yielded an EC50 greater than 5 nM. In the case of `COC(=O)CCS(=O)(=O)N[C@H]1CCc2c(-c3noc(-c4ccc(OC(C)C)c(C#N)c4)n3)cccc21` [Compound 182], the EC50 is reported as 0.05 to 0.5 nM. In the case of `COC(=O)C(C)(C)CS(=O)(=O)N[C@H]1CCc2c(-c3noc(-c4ccc(OC(C)C)c(C#N)c4)n3)cccc21` [Compound 183], the EC50 is reported as 0.5 to 5 nM. With `CC(C)Oc1ccc(-c2nc(-c3cccc4c3CC[C@@H]4NS(=O)(=O)CCN3CCC3)no2)cc1C#N` [Compound 169] the EC50 was 0.5 to 5 nM. `CC(C)Oc1ccc(-c2nc(-c3cccc4c3CC[C@H]4NC(=O)N3CC[C@H](N(C)C)C3)no2)cc1C#N` [Compound 243] showed an EC50 of 0.5 to 5 nM. `CC(C)Oc1ccc(-c2nc(-c3cccc4c3CC[C@@H]4NC(=O)N3CCC[C@@H](O)C3)no2)cc1C#N` [Compound 220] showed an EC50 of 0.05 to 0.5 nM. `CC(C)Oc1ccc(-c2nc(-c3cccc4c3CC[C@H]4NS(=O)(=O)CCN3CC[C@@H](O)C3)no2)cc1C#N` [Compound 171] was tested, and the EC50 was 0.05 to 0.5 nM. For `CC(C)Oc1ccc(-c2nc(-c3cccc4c3CC[C@H]4NCC(=O)N3CC[C@H](O)C3)no2)cc1C#N` [Compound 134], the EC50 was 0.05 to 0.5 nM. With `CC(C)Oc1ccc(-c2nc(-c3cccc4c3CC[C@@H]4NC(=O)N3CCC[C@H](O)C3)no2)cc1C#N` [Compound 216] the EC50 was 0.05 to 0.5 nM. `CC(C)Oc1ccc(-c2nc(-c3cccc4c3CCC4N3CC(C(=O)O)C3)no2)cc1C#N` (racemic) [Compound 18, 1-(4-(5-(3-cyano-4-isopropoxyphenyl)-1,2,4-oxadiazol-3-yl)-2,3-dihydro-1H-inden-1-yl)azetidine-3-carboxylic acid] showed an EC50 of less than 0.05 nM. For `CC(C)Oc1ccc(-c2nc(-c3cccc4c3CCC4NC[C@@H](C)O)no2)cc1C#N` (mixture of isomers) [Compound 42], the EC50 was 0.5 to 5 nM. Work on `CC(C)Oc1ccc(-c2nc(-c3cccc4c3CCC4N3CCCCC3)no2)cc1C#N` (racemic) [Compound 48] yielded an EC50 greater than 5 nM. Compound `CC(C)Oc1ccc(-c2nc(-c3cccc4c3CCC4NCCS(C)(=O)=O)no2)cc1C#N` (racemic) [Compound 44] has an EC50 of 0.05 to 0.5 nM. `CC(C)Oc1ccc(-c2nc(-c3cccc4c3CC[C@@H]4NC(=O)N3CC[C@@H](O)C3)no2)cc1C#N` [Compound 232] showed an EC50 of 0.05 to 0.5 nM. For `CC(=O)Nc1ccc(S(=O)(=O)NC2CCc3c(-c4noc(-c5ccc(OC(C)C)c(C#N)c5)n4)cccc32)cc1` (stereo in doubt) [Compound 82], the EC50 was greater than 5 nM. `CC(C)Oc1ccc(-c2nc(-c3cccc4c3CC[C@@H]4NS(N)(=O)=O)no2)cc1C#N` [Compound 249] gave an EC50 of less than 0.05 nM. With `CC(C)Oc1ccc(-c2nc(-c3cccc4c3CC[C@H]4N[C@H](C)CO)no2)cc1C#N` [Compound 56, 5-(3-((R)-1-(((R)-1-hydroxypropan-2-yl)amino)-2,3-dihydro-1H-inden-4-yl)-1,2,4-oxadiazol-5-yl)-2-isopropoxybenzonitrile] the EC50 was 0.05 to 0.5 nM. Work on `CC(C)Oc1ccc(-c2nc(-c3cccc4c3CCC4N3CC[C@H](O)C3)no2)cc1C#N` (mixture of isomers) [Compound 34] yielded an EC50 of 0.5 to 5 nM. With `CC(C)Oc1ccc(-c2nc(-c3cccc4c3CC[C@H]4NCC(N)=O)no2)cc1C#N` [Compound 51] the EC50 was less than 0.05 nM. For `CC(C)Oc1ccc(-c2nc(-c3cccc4c3CC[C@H]4N(CCO)S(=O)(=O)c3ccccc3)no2)cc1C#N` [Compound 117], the EC50 was greater than 5 nM. With `CCOc1ccc(-c2nc(-c3cccc4c3CC[C@@H]4O)no2)cc1C#N` [Compound 4] the EC50 was 0.05 to 0.5 nM. `CCOC(=O)N[C@H]1CCc2c(-c3noc(-c4ccc(OC(C)C)c(C#N)c4)n3)cccc21` [Compound 152] gave an EC50 of 0.5 to 5 nM. `CC(C)Oc1ccc(-c2nc(-c3cccc4c3CCC4NS(C)(=O)=O)no2)cc1C#N` (stereo in doubt) [Compound 70] showed an EC50 of 0.05 to 0.5 nM. `CC(C)Oc1ccc(-c2nc(-c3cccc4c3CC[C@@H]4NS(=O)(=O)CC(=O)N(C)C)no2)cc1C#N` [Compound 195, (S)-2 (N (4-(5-(3 cyano-4-isopropoxyphenyl)-1,2,4-oxadiazol-3-yl)-2,3-dihydro-1H-inden-1-yl)sulfamoyl)-N,N-dimethylacetamide] showed an EC50 of 0.05 to 0.5 nM. `CC(=O)OCCNC1CCc2c(-c3noc(-c4ccc(OC(C)C)c(C#N)c4)n3)cccc21` (racemic) [Compound 37] was tested, and the EC50 was 0.05 to 0.5 nM. Work on `CC(C)Oc1ccc(-c2nc(-c3cccc4c3CC[C@H]4OC(=O)C(C)(C)C)no2)cc1C#N` [Compound 14, (R)-4-(5-(3-cyano-4-isopropoxyphenyl)-1,2,4-oxadiazol-3-yl)-2,3-dihydro-1H-inden-1-yl pivalate] yielded an EC50 greater than 5 nM. Work on `CC(C)Oc1ccc(-c2nc(-c3cccc4c3CC[C@H]4NS(=O)(=O)CC(=O)N(C)C)no2)cc1C#N` [Compound 194, (R)-2-(N-(4-(5-(3-cyano-4-isopropoxyphenyl)-1,2,4-oxadiazol-3-yl)-2,3-dihydro-1H-inden-1-yl)sulfamoyl)-N,N-dimethylacetamide] yielded an EC50 of less than 0.05 nM. Work on `CC(C)Oc1ccc(-c2nc(-c3cccc4c3CC[C@@H]4N3CC(C(=O)N4CCC4)C3)no2)cc1C#N` [Compound 207] yielded an EC50 of 0.05 to 0.5 nM. `CC(C)COc1ccc(-c2nc(-c3cccc4c3CCC4NCCO)no2)cc1C#N` (racemic) [Compound 103, 5-(3-(1-((2-hydroxyethyl)amino)-2,3-dihydro-1H-inden-4-yl)-1,2,4-oxadiazol-5-yl)-2-isobutoxybenzonitrile] was tested, and the EC50 was 0.5 to 5 nM. Work on `CCCN[C@H]1CCc2c(-c3noc(-c4ccc(OC(C)C)c(C#N)c4)n3)cccc21` [Compound 144] yielded an EC50 of 0.05 to 0.5 nM. For `CCN(CC)C(=O)CN[C@@H]1CCc2c(-c3noc(-c4ccc(OC(C)C)c(C#N)c4)n3)cccc21` [Compound 60], the EC50 was 0.5 to 5 nM. `CC(C)Oc1ccc(-c2nc(-c3cccc4c3CC[C@@H]4N(C)CC(=O)O)no2)cc1C#N` [Compound 208] was tested, and the EC50 was 0.05 to 0.5 nM. Compound `CCOC(=O)CNC1CCc2c(-c3noc(-c4ccc(OC(C)C)c(C#N)c4)n3)cccc21` (racemic) [Compound 40] has an EC50 of 0.05 to 0.5 nM. With `CC(C)Oc1ccc(-c2nc(-c3cccc4c3CC[C@@H]4NS(=O)(=O)CC(=O)N3CC(O)C3)no2)cc1C#N` [Compound 189] the EC50 was 0.05 to 0.5 nM. In the case of `CCOc1ccc(-c2nc(-c3cccc4c3CC[C@@H]4O)no2)cc1C(F)(F)F` [Compound 10], the EC50 is reported as 0.05 to 0.5 nM. `CC(C)Oc1ccc(-c2nc(-c3cccc4c3CC[C@H]4NC(=O)N3CCC(CO)CC3)no2)cc1C#N` [Compound 217] showed an EC50 of 0.5 to 5 nM. `CC(C)Oc1ccc(-c2nc(-c3cccc4c3CCC4NC[C@H](C)O)no2)cc1C#N` (mixture of isomers) [Compound 43] gave an EC50 of 0.05 to 0.5 nM. `CC(C)Oc1ccc(-c2nc(-c3cccc4c3CC[C@@H]4NC(=O)N3CCOCC3)no2)cc1C#N` [Compound 212] gave an EC50 of 0.05 to 0.5 nM. Compound `CC(C)Oc1ccc(-c2nc(-c3cccc4c3CCC4N3CCC(O)CC3)no2)cc1C#N` (racemic) [Compound 16, 5-(3-(1-(4-hydroxypiperidin-1-yl)-2,3-dihydro-1H-inden-4-yl)-1,2,4-oxadiazol-5-yl)-2-isopropoxybenzonitrile] has an EC50 of 0.05 to 0.5 nM. `CC(C)Oc1ccc(-c2nc(-c3cccc4c3CCC4NC[C@H](O)CO)no2)cc1C#N` (mixture of isomers) [Compound 41] was tested, and the EC50 was 0.05 to 0.5 nM. `CC(C)Oc1cc(-c2nc(-c3cccc4c3CC[C@H]4N)no2)ccc1C#N` [Compound 98, (R)-4-(3-(1-amino-2,3-dihydro-1H-inden-4-yl)-1,2,4-oxadiazol-5-yl)-2-isopropoxy benzonitrile] showed an EC50 greater than 5 nM. Compound `CC(C)Oc1ccc(-c2nc(-c3cccc4c3CCC4NC[C@@H](O)CO)no2)cc1C#N` (mixture of isomers) [Compound 30] has an EC50 of 0.05 to 0.5 nM. In the case of `CC(C)Oc1ccc(-c2nc(-c3cccc4c3CC[C@@H]4NS(=O)(=O)CCN(C)C)no2)cc1C#N` [Compound 78, (S)-N-(4-(5-(3 cyano-4-isopropoxyphenyl)-1,2,4-oxadiazol-3-yl)-2,3-dihydro-1H-inden-1-yl)-2-(dimethylamino)ethanesulfonamide], the EC50 is reported as 0.5 to 5 nM. For `CC(C)Oc1ccc(-c2nc(-c3cccc4c3CC[C@H]4NS(=O)(=O)CCN3CCCC3)no2)cc1C#N` [Compound 170], the EC50 was 0.5 to 5 nM. For `CC(C)Oc1ccc(-c2nc(-c3cccc4c3CC[C@H]4N3CC(C(=O)O)C3)no2)cc1C#N` [Compound 202, (R)-1-(4-(5-(3-cyano-4-isopropoxyphenyl)-1,2,4-oxadiazol-3-yl)-2,3-dihydro-1H-inden-1-yl)azetidine-3-carboxylic acid], the EC50 was less than 0.05 nM. For `N#Cc1cc(-c2nc(-c3cccc4c3CCC4NCCO)no2)ccc1OCC(=O)O` (racemic) [Compound 109], the EC50 was greater than 5 nM. Compound `CC(C)Oc1ccc(-c2nc(-c3cccc4c3CCC4NCCN3CCCC3)no2)cc1C#N` (racemic) [Compound 26] has an EC50 of 0.5 to 5 nM. `CC(C)Oc1ccc(-c2nc(-c3cccc4c3CC[C@H]4NC(=O)CN)no2)cc1C#N` [Compound 66] showed an EC50 of 0.05 to 0.5 nM. `CC(C)Oc1ccc(-c2nc(-c3cccc4c3CCC4NC3CCNCC3)no2)cc1C#N` (racemic) [Compound 19, 2-isopropoxy-5-(3-(1-(piperidin-4-ylamino)-2,3-dihydro-1H-inden-4-yl)-1,2,4-oxadiazol-5-yl)benzonitrile] gave an EC50 greater than 5 nM.
